# Marks after values point to notes of the source that are not given here.
# Experiments:
# [1] = tested on: CF1 mouse embryos; test: Sequential G1/G2 culture of mouse embryos, G1 with or without 10 μM lipoic acid (Example 2); assay type: cell-based; conditions: low O2
# Protocol: CF1 mouse embryos were grown in either G1 alone or G1 plus 10 μM lipoic acid. After 48 hours, embryos from both treatment groups were moved to G2. All cultures were incubated in low O2. Compaction rates were assessed and blastocyst developmental rates were measured at 71 and 78 hours. Blastocysts were then differentially stained and counted.
# [2] = tested on: CF1 mouse zygote; test: Effective concentration range of lipoic acid on mouse zygote development at 20% oxygen (Example 3); assay type: cell-based; conditions: for Day 3 (% compacting) / Day 4 (% Total Blast) / Day 5 (% Hatching) / Day 5 (% Total Blast) / Total Cell Number: 20% oxygen
# From the text: The effective range of lipoic acid concentrations to enhance blastocyst development and cell number was established using CF1 mouse embryos.
# [3] = tested on: rabbit morulae; conditions: omission from Ham's F10 medium; cited from earlier work
# [4] = tested on: reactive oxygen species (ROS); test: ROS generation in culture medium by UV photo-oxidation, H2DFFDA fluorescent dye (Example 4); conditions: all concentrations; compared to vehicle group; UV photo-oxidation in GMOPS-Plus
# Protocol: In order to determine whether the lipoic acid is having an antioxidant effect, a series of experiments were performed using the fluorescent dye […] (H2DFFDA), which reacts with reactive oxygen species (ROS) intermediates. 200 μM H2DFFDA in DMSO was added to GMOPS-Plus (available from Vitrolife). Lipoic acid dissolved in EtOH with the final concentration within the media being 0.1% EtOH. Each drop was then photo-oxidized with 4 successive 2.5 minute exposures using UV light to generate ROS.
# All results are based on comparison to the vehicle group ([…]), which was not significant in comparison to the control group.
# [5] = tested on: human embryos; test: Human embryo development in G1 medium with 10 μM lipoic acid (Example 5); assay type: cell-based; conditions: G1 medium with 10 μM lipoic acid versus G1 free of lipoic acid
# Protocol: In accordance with the present invention, the effect of lipoic acid-containing culture media on human embryo development is examined. Good prognosis patients have half of their embryos cultured in G1 culture media free of lipoic acid (i.e., the control), while the other half are cultured in G1 medium containing 10 μM lipoic acid (i.e., the elevated lipoic acid medium).
# [6] = tested on: CF1 mouse embryos; test: Blastocyst development and cell number of mouse embryos cultured with lipoic acid at 20% or 5% O2 (Example 1); assay type: cell-based
# Protocol: The following procedure was carried out. Lipoic acid was dissolved in ethanol. A 100 mM working solution in 100% EtOH was prepared with appropriate dilutions made to the culture media thereafter (1 μM, 10 μM and 100 μM final concentrations). A vehicle control, equivalent to the dilution of the highest concentration solution (0.1%), was used in all culture experiments. Zygotes were collected from 4-week-old CF1 outbred female mice. Cumulus-enclosed zygotes were collected at 21 h post hCG and denuded with 1 mg/mL hyaluronidase in G-MOPS supplemented with 5 mg/mL human serum albumin. Cultures were incubated at either 5% or 20% O2. After four days of culture, blastocyst development was analyzed and cell number was counted in 200 cultured embryos per treatment.
# The results are shown in FIGS. 1 (20% O2) and 2 (5% O2). The data are based on 200 embryos cultured per study. […] Furthermore, the beneficial effect of lipoic acid was lost at higher concentrations. […] The data for FIGS. 1 and 2 are presented in Tables 6 and 7, respectively, which also provide the results for the trophectoderm, inner cell mass (ICM) and ICM ratio.
# [7] = tested on: 8-cell hamster embryos; conditions: omission from Ham's F10 medium; cited from earlier work
# [8] = G1 + 10 μM LA for 48 hours, then G2
smiles,measurement,setting,value
O=C(O)CCCC[C@@H]1CCSS1 (racemic) [lipoic acid],inner cell mass number and percentage inner cell mass of total,[1]; 10 μM lipoic acid added to G1,increased inner cell mass number and percentage inner cell mass of total
same,% Expanded on Day 4,[1]; [8],39.7%
same,% ICM,[1]; [8],31%**
same,Day 3 % a.m.,[1]; [8],81.0%
same,Day 4 blast % a.m.,[1]; [8],22.4%
same,Day 4 blast % p.m.,[1]; [8],65.5%
same,ICM,[1]; [8],16 ± 1
same,TE,[1]; [8],34 ± 2
same,Total,[1]; [8],50 ± 2
same,Day 3 (% compacting),[2]; 5 μM LA,38.9%
same,Day 4 (% Total Blast),[2]; 5 μM LA,51.6%
same,Day 5 (% Hatching),[2]; 5 μM LA,40.9%
same,Day 5 (% Total Blast),[2]; 5 μM LA,81.8%
same,Total Cell Number,[2]; 5 μM LA,90.2 ± 4.8
same,Day 3 (% compacting),[2]; 10 μM LA,51.4%
same,Day 4 (% Total Blast),[2]; 10 μM LA,62.9%
same,Day 5 (% Hatching),[2]; 10 μM LA,40.0%
same,Day 5 (% Total Blast),[2]; 10 μM LA,92.7%
same,Total Cell Number,[2]; 10 μM LA,91.3 ± 4.7
same,Day 3 (% compacting),[2]; 20 μM LA,26.5%
same,Day 4 (% Total Blast),[2]; 20 μM LA,42.9%
same,Day 5 (% Hatching),[2]; 20 μM LA,31.3%
same,Day 5 (% Total Blast),[2]; 20 μM LA,73.1%
same,Total Cell Number,[2]; 20 μM LA,94.0 ± 7.2
same,Day 3 (% compacting),[2]; 40 μM LA,22.9%
same,Day 4 (% Total Blast),[2]; 40 μM LA,37.3%
same,Day 5 (% Hatching),[2]; 40 μM LA,28.4%
same,Day 5 (% Total Blast),[2]; 40 μM LA,74.6%
same,Total Cell Number,[2]; 40 μM LA,69.4 ± 5.8
same,Day 3 (% compacting),[2]; 80 μM LA,22.9%
same,Day 4 (% Total Blast),[2]; 80 μM LA,4.6%
same,Day 5 (% Hatching),[2]; 80 μM LA,9.4%
same,Day 5 (% Total Blast),[2]; 80 μM LA,29.7%
same,Total Cell Number,[2]; 80 μM LA,34.0
same,blastocyst development by day 5 and cell number relative to the control,[2]; above 5 to 40 μM,lower blastocyst development by day 5 and lower cell number relative to the control
same,"effect on progression to blastocyst stage, blastocyst cell number and inner cell mass",[2]; lipoic acid at less than 5 μM,"little, if any, effect"
same,day 4 blastocyst development and cell numbers,[2]; lipoic acid greater than about 40 μM,lower day 4 blastocyst development and decreased cell numbers
same,concentration of maximum improvement to embryo development,[2]; within the range 5 μM to 40 μM,approximately 10 μM
same,effect of omission of lipoic acid on culture of rabbit morulae to expanded blastocysts,[3],no significant effect
same,generation of ROS within the culture media,[4],concentration-dependent decrease in the generation of reactive oxygen
same,human embryo development up to the 8-cell and blastocyst stage,[5],Embryos develop quicker up to the 8-cell and blastocyst stage
same,blastocyst cell number,"[6]; 1 μM lipoic acid, at either 5% or 20% oxygen",no statistically significant increase in cell number
same,blastocyst cell number,"[6]; 10 μM lipoic acid, outbred (CF1) mouse embryos",significantly higher cell number
same,blastocyst cell number versus control medium,[6]; 100 μM lipoic acid,significantly lower cell numbers
same,Day 5 % Blast,"[6]; lipoic acid 1 μM, 5% O2",76.15%
same,ICM,"[6]; lipoic acid 1 μM, 5% O2",16.83
same,ICM ratio,"[6]; lipoic acid 1 μM, 5% O2",19.71%
same,total cell #,"[6]; lipoic acid 1 μM, 5% O2",85.40
same,trophectoderm,"[6]; lipoic acid 1 μM, 5% O2",68.57
same,Day 5 % Blast,"[6]; lipoic acid 1 μM, 20% O2",59.18%
same,ICM,"[6]; lipoic acid 1 μM, 20% O2",13.07
same,ICM ratio,"[6]; lipoic acid 1 μM, 20% O2",19.12%
same,total cell #,"[6]; lipoic acid 1 μM, 20% O2",68.37
same,trophectoderm,"[6]; lipoic acid 1 μM, 20% O2",55.30
same,Day 5 % Blast,"[6]; lipoic acid 10 μM, 5% O2",76.74%^#
same,ICM,"[6]; lipoic acid 10 μM, 5% O2",22.49^####
same,ICM ratio,"[6]; lipoic acid 10 μM, 5% O2",22.10%
same,total cell #,"[6]; lipoic acid 10 μM, 5% O2",101.77^###
same,trophectoderm,"[6]; lipoic acid 10 μM, 5% O2",79.28^##
same,Day 5 % Blast,"[6]; lipoic acid 10 μM, 20% O2",61.47%^‡
same,ICM,"[6]; lipoic acid 10 μM, 20% O2",16.4731^‡‡‡‡
same,ICM ratio,"[6]; lipoic acid 10 μM, 20% O2",21.25%
same,total cell #,"[6]; lipoic acid 10 μM, 20% O2",77.527^‡‡‡
same,trophectoderm,"[6]; lipoic acid 10 μM, 20% O2",61.054^‡‡
same,Day 5 % Blast,"[6]; lipoic acid 100 μM, 5% O2",53.13%
same,ICM,"[6]; lipoic acid 100 μM, 5% O2",13.61
same,ICM ratio,"[6]; lipoic acid 100 μM, 5% O2",18.33%
same,total cell #,"[6]; lipoic acid 100 μM, 5% O2",74.21
same,trophectoderm,"[6]; lipoic acid 100 μM, 5% O2",60.61
same,Day 5 % Blast,"[6]; lipoic acid 100 μM, 20% O2",42.57%
same,ICM,"[6]; lipoic acid 100 μM, 20% O2",10.2916
same,ICM ratio,"[6]; lipoic acid 100 μM, 20% O2",19.07%
same,total cell #,"[6]; lipoic acid 100 μM, 20% O2",53.9583
same,trophectoderm,"[6]; lipoic acid 100 μM, 20% O2",43.6667
same,effect of omission of lipoic acid on development of 8-cell hamster embryos,[7],no significant effect on the development at any stage of culture

# From patent US20130344595A1, “CULTURE MEDIA FOR DEVELOPMENTAL CELLS CONTAINING ELEVATED CONCENTRATIONS OF LIPOIC ACID” (Vitrolife Sweden AB, priority 2007, published 2013)
